Assay results published in paper PMC7658267, “Effects of CYP46A1 Inhibition on Long-Term-Depression in Hippocampal Slices ex vivo and 24S-Hydroxycholesterol Levels in Mice in vivo” (Frontiers in Molecular Neuroscience, 2020).

What was measured:
[1] = biological target: T1, CYP46A1 (Homo sapiens, UniProt Q9Y6A2); assay: recombinant human CYP46A1 microsomes, cholesterol to 24-hydroxycholesterol, LC-MS/MS ([…] with testosterone as substrate); format: biochemical
[2] = biological target: T1, CYP46A1; assay: turnover to 24-hydroxycholesterol by human CYP46A1 microsomes, LC-MS/MS; format: biochemical

T1 sequence (Q9Y6A2 whole entry): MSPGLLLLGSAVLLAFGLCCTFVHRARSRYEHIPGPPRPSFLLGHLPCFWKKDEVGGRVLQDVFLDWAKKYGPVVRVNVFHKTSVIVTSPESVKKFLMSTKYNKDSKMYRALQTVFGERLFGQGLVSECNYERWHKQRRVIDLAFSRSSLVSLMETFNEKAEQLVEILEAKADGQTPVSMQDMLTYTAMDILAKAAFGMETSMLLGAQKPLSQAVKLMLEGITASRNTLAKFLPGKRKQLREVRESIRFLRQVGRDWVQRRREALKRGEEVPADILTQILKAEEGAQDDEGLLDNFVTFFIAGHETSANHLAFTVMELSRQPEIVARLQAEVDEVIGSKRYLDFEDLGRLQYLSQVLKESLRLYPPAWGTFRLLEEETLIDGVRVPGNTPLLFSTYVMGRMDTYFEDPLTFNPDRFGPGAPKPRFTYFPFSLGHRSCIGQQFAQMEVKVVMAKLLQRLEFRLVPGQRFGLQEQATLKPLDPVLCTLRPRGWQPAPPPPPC

Row | SMILES | IC50 [1] [µM] | turnover to 24-hydroxycholesterol by human CYP46A1 microsomes, LC-MS/MS [2]
1 | C[C@@H](c1ncncc1F)[C@](O)(Cn1cncn1)c1ccc(F)cc1F [Voriconazole] | 12.2 | 
2 | CC(C)CCC[C@@H](C)[C@H]1CC[C@H]2[C@@H]3CC=C4C[C@@H](O)CC[C@]4(C)[C@H]3CC[C@]12C [cholesterol] |  | We also developed an in vitro assay using cholesterol as a substrate.
